Results as given in patent US8471024B2, “Tetrahydrofuropyridones” (priority 2008, dated 2013).

molecular target: T1, PHD2 (Homo sapiens, UniProt Q9GZT9); assay: Assay for HIF-PHD2 Catalytic Activity (time resolved fluorescence, VHL complex detection); format: biochemical; conditions: FLAG-tagged full length PHD2; 0.2 μM 2-oxoglutarate, 0.5 μM HIF-1α peptide; read-out: PHD2 Binding Activity IC50
T1 construct: FLAG-tagged full length PHD2expressed in and purified from baculovirus-infected Sf9 cells; FLAG; made in house; host or cells: baculovirus-infected Sf9 cells
T1 sequence (Q9GZT9 whole entry): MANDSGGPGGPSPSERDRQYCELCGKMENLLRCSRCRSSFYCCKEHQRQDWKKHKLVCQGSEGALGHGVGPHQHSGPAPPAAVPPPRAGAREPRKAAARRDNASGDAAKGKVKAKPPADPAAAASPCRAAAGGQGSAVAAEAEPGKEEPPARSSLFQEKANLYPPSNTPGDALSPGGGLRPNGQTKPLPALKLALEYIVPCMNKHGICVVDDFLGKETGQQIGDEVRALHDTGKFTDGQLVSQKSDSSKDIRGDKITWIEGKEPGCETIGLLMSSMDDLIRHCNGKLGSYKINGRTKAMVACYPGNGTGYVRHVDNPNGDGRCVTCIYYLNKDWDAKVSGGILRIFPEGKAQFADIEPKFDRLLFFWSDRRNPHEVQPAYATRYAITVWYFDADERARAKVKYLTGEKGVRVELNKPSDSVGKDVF
Protocol: Assay for HIF-PHD2Catalytic Activity To each well of a 96-well plate was added 1 μL of test compound in DMSO and 20 μl of assay buffer (50 mM Tris pH 7.4/0.01% Tween-20/0.1 mg/ml bovine serum albumin/10 μM ferrous sulfate/1mM sodium ascorbate/20 μg/ml catalase) containing 0.15 μg/ml FLAG-tagged full length PHD2expressed in and purified from baculovirus-infected Sf9 cells. After a 30 min preincubation at room temperature, the enzymatic reactions were initiated by the addition of 4 μL of substrates (final concentrations of 0.2 μM 2-oxoglutarate and 0.5 μM HIF-1α peptide biotinyl-DLDLEMLAPYJPMDDDFQL).

Structure (SMILES)	IC50 [nM]
O=C(O)CNC(=O)c1c(O)c2c(n(Cc3ccc(Br)cc3F)c1=O)COC2 [Example 15, N-{[1-(4-bromo-2-fluorobenzyl)-4-hydroxy-2-oxo-1,2,5,7-tetrahydrofuro[3,4-b]pyridin-3-yl]carbonyl}glycine]	< 10
O=C(O)CNC(=O)c1c(O)c2c(n(Cc3ccc(Br)cc3)c1=O)COC2 [Example 10, N-{[1-(4-bromobenzyl)-4-hydroxy-2-oxo-1,2,5,7-tetrahydrofuro[3,4-b]pyridin-3-yl]carbonyl)glycine]	< 10
O=C(O)CNC(=O)c1c(O)c2c(n(Cc3nc(-c4ccc(Cl)cc4Cl)cs3)c1=O)COC2 [Example 26, N-[(1-{[4-(2,4-dichlorophenyl)-1,3-thiazol-2-yl]methyl)-4-hydroxy-2-oxo-1,2,5,7-tetrahydrofuro[3,4-b]pyridin-3-yl)carbonyl]glycine]	< 10
O=C(O)CNC(=O)c1c(O)c2c(n(Cc3ccc(-c4ccccc4-n4cccn4)cc3)c1=O)COC2 [Example 32, N-[(4-hydroxy-2-oxo-1-{[2′-(1H-pyrazol-yl)biphenyl-4-yl]methyl}-1,2,5,7-tetrahydrofuro[3,4-b]pyridin-3-yl}carbonyl)glycine]	< 10
CC(C)Oc1ccc(Cn2c3c(c(O)c(C(=O)NCC(=O)O)c2=O)COC3)cc1 [Example 8, N-{[4-hydroxy-1-(4-isopropoxybenzyl)-2-oxo-1,2,5,7-tetrahydrofuro[3,4-b]pyridin-3-yl]carbonyl}glycine]	< 10
O=C(O)CNC(=O)c1c(O)c2c(n(Cc3ccc(-c4ccc(F)cc4Cl)nc3)c1=O)COC2 [Example 50, N-[(1-{[6-(2-chloro-4-fluorophenyl)pyridin-3-yl]methyl}-4-hydroxy-2-oxo-1,2,5,7-tetrahydrofuro[3,4-b]pyridin-3-yl)carbonyl]glycine]	< 10
O=C(O)CNC(=O)c1c(O)c2c(n(Cc3noc(-c4ccccc4)n3)c1=O)COC2 [Example 5, N-({4-hydroxy-2-oxo-1-[(5-phenyl-1,2,4-oxadiazol-3-yl)methyl]-1,2,5,7-tetrahydrofuro[3,4-b]pyridin-3-yl}carbonyl)glycine]	< 10
O=C(O)CNC(=O)c1c(O)c2c(n(CC3Cc4ccccc4C3)c1=O)COC2 [Example 11, N-{[1-(2,3-dihydro-1H-inden-2-ylmethyl)-4-hydroxy-2-oxo-1,2,5,7-tetrahydrofuro[3,4-b]pyridin-3-yl]carbonyl}glycine]	< 10
O=C(O)CNC(=O)c1c(O)c2c(n(Cc3ccc(-c4ccc(Cl)cc4Cl)cc3)c1=O)COC2 [Example 35]	< 10
O=C(O)CNC(=O)c1c(O)c2c(n(Cc3ccc(-c4ccc(F)cc4Cl)cc3)c1=O)COC2 [Example 37]	< 10
O=C(O)CNC(=O)c1c(O)c2c(n(Cc3ccc(-c4ccccc4Cl)cc3)c1=O)COC2 [Example 28]	< 10
O=C(O)CNC(=O)c1c(O)c2c(n(Cc3ccn(-c4ccc(F)cc4)n3)c1=O)COC2 [Example 22]	< 10
O=C(O)CNC(=O)c1c(O)c2c(n(Cc3ccc(-c4nccs4)cc3)c1=O)COC2 [Example 23, N-({4-hydroxy-2-oxo-1-[4-(1,3-thiazol-2-yl)benzyl]-1,2,5,7-tetrahydrofuro[3,4-b]pyridin-3-yl}carbonyl)glycine]	< 10
O=C(O)CNC(=O)c1c(O)c2c(n(Cc3ccc(-c4ccccc4OCC(F)(F)F)cc3)c1=O)COC2 [Example 34, N-[(4-hydroxy-1-{[2′-(2,2,2-trifluoroethoxy)biphenyl-4-yl]methyl}-2-oxo-1,2,5,7-tetrahydrofuro[3,4-b]pyridin-3-yl}carbonyl)glycine]	< 10
O=C(O)CNC(=O)c1c(O)c2c(n(Cc3ccc(-c4ccc(F)cc4Cl)cc3F)c1=O)COC2 [Example 39]	< 10
O=C(O)CNC(=O)c1c(O)c2c(n(Cc3ccc(-c4ccccc4Cl)cc3F)c1=O)COC2 [Example 38]	< 10
CCN(CC)C(=O)c1ccccc1-c1ccc(Cn2c3c(c(O)c(C(=O)NCC(=O)O)c2=O)COC3)c(F)c1 [Example 40]	< 10
COC(=O)c1ccccc1-c1ccc(Cn2c3c(c(O)c(C(=O)NCC(=O)O)c2=O)COC3)cc1 [Example 36, N-[(4-hydroxy-1-{[2′-(methoxycarbonyl)biphenyl-4-yl]methyl}-2-oxo-1,2,5,7-tetrahydrofuro[3,4,-b]pyridin-3-yl}carbonyl)glycine]	< 10

Structure (SMILES)	IC50 [nM]
O=C(O)CNC(=O)c1c(O)c2c(n(Cc3ccc(-c4ccccc4OC(F)(F)F)nc3)c1=O)COC2 [Example 48, N-{[4-hydroxy-2-oxo-1-({6-[2-(trifluoromethoxy)phenyl]pyridin-3-yl}methyl)-1,2,5,7-tetrahydrofuro[3,4-b]pyridin-3-yl]carbonyl}glycine]	< 10
O=C(O)CNC(=O)c1c(O)c2c(n(Cc3cccnn3)c1=O)COC2 [Example 4, N-{[4-hydroxy-2-oxo-1-(pyridazin-3-ylmethyl)-1,2,5,7-tetrahydrofuro[3,4-b]pyridin-3-yl]carbonyl}glycine]	< 10
O=C(O)CNC(=O)c1c(O)c2c(n(Cc3ccc(-c4ccccc4C(F)(F)F)cc3)c1=O)COC2 [Example 33, N-[(4-hydroxy-2-oxo-1-{[2′-(trifluoromethyl)biphenyl-4-yl]methyl}-1,2,5,7-tetrahydrofuro[3,4-b]pyridin-3-yl}carbonyl)glycine]	< 10
O=C(O)CNC(=O)c1c(O)c2c(n(Cc3ccc(-c4cc(Cl)cc(Cl)c4)nc3)c1=O)COC2 [Example 42, N-[(1-{[6-(3,5-dichlorophenyl)pyridin-3-yl]methyl}-4-hydroxy-2-oxo-1,2,5,7-tetrahydrofuro[3,4-b]pyridin-3-yl)carbonyl]glycine]	< 10
O=C(O)CNC(=O)c1c(O)c2c(n(Cc3ccc(-c4ccccc4)nc3)c1=O)COC2 [Example 41, N-({4-hydroxy-2-oxo-1-[(6-phenylpyridin-3-yl)methyl]-1,2,5,7-tetrahydrofuro[3,4-b]pyridin-3-yl}carbonyl)glycine]	< 10
O=C(O)CNC(=O)c1c(O)c2c(n(Cc3cnc(-c4ccc(F)cc4F)cn3)c1=O)COC2 [Example 51, N-[(1-{[5-(2,4-difluorophenyl)pyrazin-2-yl]methyl}-4-hydroxy-2-oxo-1,2,5,7-tetrahydrofuro[3,4-b]pyridin-3-yl)carbonyl]glycine]	< 10
Cc1ccccc1-n1ccc(Cn2c3c(c(O)c(C(=O)NCC(=O)O)c2=O)COC3)n1 [Example 20, N-[(4-hydroxy-1-{[1-(2-methylphenyl)-1-H-pyrazol-3-yl]methyl}-2-oxo-1,2,5,7-tetrahydrofuro[3,4-b]pyridin-3-yl)carbonyl]glycine]	< 10
O=C(O)CNC(=O)c1c(O)c2c(n(Cc3ccc(-c4ccccc4C(F)(F)F)nc3)c1=O)COC2 [Example 47, N-{[4-hydroxy-2-oxo-1-({6-[2-(trifluoromethyl)phenyl]pyridin-3-yl}methyl)-1,2,5,7-tetrahydrofuro[3,4-b]pyridin-3-yl]carbonyl}glycine]	< 10
O=C(O)CNC(=O)c1c(O)c2c(n(Cc3ccc(OCC(F)(F)F)nc3)c1=O)COC2 [Example 19, N-[(4-hydroxy-2-oxo-1-{[6-(2,2,2-trifluoroethoxy)pyridin-3-yl]methyl}-1,2,5,7-tetrahydrofuro[3,4-b]pyridin-3-yl)carbonyl]glycine]	< 10
O=C(O)CNC(=O)c1c(O)c2c(n(Cc3ccc(OC(F)F)cc3)c1=O)COC2 [Example 17, N-{[1-(4-difluoromethoxybenzyl)-4-hydroxy-2-oxo-1,2,5,7-tetrahydrofuro[3,4-b]pyridin-3-yl]carbonyl}glycine]	< 10
O=C(O)CNC(=O)c1c(O)c2c(n(Cc3nc4ccccc4s3)c1=O)COC2 [Example 1, N-{[1-(1,3-benzothiazol-2-ylmethyl)-4-hydroxy-2-oxo-1,2,5,7-tetrahydrofuro[3,4-b]-pyridin-3-yl]carbonyl}glycine]	< 10
O=C(O)CNC(=O)c1c(O)c2c(n(Cc3ccc(OCC(F)(F)F)cc3)c1=O)COC2 [Example 24, N-({4-hydroxy-2-oxo-1-[4-(2,2,2-trifluoroethoxy)benzyl]-1,2,5,7-tetrahydrofuro[3,4-b]pyridin-3-yl}carbonyl)glycine]	< 10
O=C(O)CNC(=O)c1c(O)c2c(n(Cc3cnc(-c4ccccc4OC(F)(F)F)cn3)c1=O)COC2 [Example 54, N-[(1-{[5-(2-trifluoromethoxyphenyl)pyrazin-2-yl]methyl}-4-hydroxy-2-oxo-1,2,5,7-tetrahydrofuro[3,4-b]pyridin-3-yl)carbonyl]glycine]	< 10
O=C(O)CNC(=O)c1c(O)c2c(n(Cc3ccc(Cl)nc3)c1=O)COC2 [Example 9, N-({1-[(6-chloropyridin-3-yl)methyl]-4-hydroxy-2-oxo-1,2,5,7-tetrahydrofuro[3,4-b]pyridin-3-yl}carbonyl)glycine]	< 10
CC1OCc2c1c(O)c(C(=O)NCC(=O)O)c(=O)n2Cc1ccc(C(F)(F)F)nc1 (centres unmarked) [Example 14, N-[(4-hydroxy-5-methyl-2-oxo-1-{[6-(trifluoromethyl)pyridine-3-yl]methyl}-1,2,5,7-tetrahydrofuro[3,4-b]pyridin-3-yl}carbonyl)glycine]	< 10
CC1(C)OCc2c(O)c(C(=O)NCC(=O)O)c(=O)n(Cc3nc4ccccc4s3)c21 [Example 25]	10 to 100
O=C(O)CNC(=O)c1c(O)c2c(n(Cc3cnc(-c4ccccc4Cl)cn3)c1=O)COC2 [Example 53, N-[(1-{[5-(2-chlorophenyl)pyrazin-2-yl]methyl}-4-hydroxy-2-oxo-1,2,5,7-tetrahydrofuro[3,4-b]pyridin-3-yl)carbonyl]glycine]	< 10
